Reference: ChEMBL document CHEMBL1201862, “PubChem BioAssay data set” (2004)
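Step 1: Grow cells in 96-well plates. Step 2: Expose to compound for 48 hours at 5 concentrations. Step 3: Interpolate endpoints linearly; if unreached, use highest concentration. GI50 marks 50% less growth.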 Active and inactive are the calls of the source. Rule as the data show it: active = GI50 up to about 1.1 µM and inactive = higher.

How the values were obtained:
Assay in all cases: DTP human tumour cell line panel, 48 h
SF-539 = tested on: SF-539
SK-MEL-5 = tested on: SK-MEL-5
COLO 205 = tested on: COLO 205
Malme-3M = tested on: Malme-3M
LOX IMVI = tested on: LOX IMVI
UO-31 = tested on: UO-31
RXF 631 = tested on: RXF 631
SK-MEL-2 = tested on: SK-MEL-2
RPMI-8226 = tested on: RPMI-8226
NCI-H23 = tested on: NCI-H23
ACHN = tested on: ACHN
HOP-18 = tested on: HOP-18
MOLT-4 = tested on: MOLT-4
SNB-19 = tested on: SNB-19
TK-10 = tested on: TK-10
CAKI-1 = tested on: CAKI-1
UACC-62 = tested on: UACC-62
RXF 393 = tested on: RXF 393
HT-29 = tested on: HT-29
786-0 = tested on: 786-0
LXFL 529 = tested on: LXFL 529
M19-MEL = tested on: M19-MEL
HCC 2998 = tested on: HCC 2998
OVCAR-8 = tested on: OVCAR-8
SF-268 = tested on: SF-268
UACC-257 = tested on: UACC-257
OVCAR-3 = tested on: OVCAR-3
HCT-116 = tested on: HCT-116
A498 = tested on: A498
DMS-273 = tested on: DMS-273
IGROV-1 = tested on: IGROV-1
K562 = tested on: K562
SK-OV-3 = tested on: SK-OV-3
CCRF-CEM = tested on: CCRF-CEM
M14 = tested on: M14
SN12C = tested on: SN12C
A549 = tested on: A549
U-251 = tested on: U-251
KM-20L2 = tested on: KM-20L2
HCT-15 = tested on: HCT-15
DMS-114 = tested on: DMS-114
HOP-92 = tested on: HOP-92
NCI-H522 = tested on: NCI-H522
SK-MEL-28 = tested on: SK-MEL-28
SNB-78 = tested on: SNB-78
OVCAR-5 = tested on: OVCAR-5
SNB-75 = tested on: SNB-75
OVCAR-4 = tested on: OVCAR-4
SW-620 = tested on: SW-620
DLD-1 = tested on: DLD-1
EKVX = tested on: EKVX
SF-295 = tested on: SF-295
HOP-62 = tested on: HOP-62
NCI-H460 = tested on: NCI-H460
KM12 = tested on: KM12
HL-60 = tested on: HL-60
XF498 = tested on: XF498
SR = tested on: SR
NCI-H226 = tested on: NCI-H226

O=C(N/C(=C\c1ccc(/C=C(\NC(=O)c2ccccc2)c2nc3cc([N+](=O)[O-])ccc3[nH]2)cc1)c1nc2cc([N+](=O)[O-])ccc2[nH]1)c1ccccc1
GI50 (SF-539): 80.4 µM (inactive) | GI50 (SK-MEL-5): 22.2 µM (inactive) | GI50 (COLO 205): 29.8 µM (inactive) | GI50 (Malme-3M): > 100 µM (inactive) | GI50 (LOX IMVI): 28.8 µM (inactive) | GI50 (UO-31): 46.7 µM (inactive) | GI50 (RXF 631): 34.5 µM (inactive) | GI50 (SK-MEL-2): 14.9 µM (inactive) | GI50 (RPMI-8226): 12 µM (inactive) | GI50 (NCI-H23): 25.4 µM (inactive) | GI50 (ACHN): 23.2 µM (inactive) | GI50 (HOP-18): > 100 µM (inactive) | GI50 (MOLT-4): 11 µM (inactive) | GI50 (SNB-19): > 100 µM (inactive) | GI50 (TK-10): 32.1 µM (inactive) | GI50 (CAKI-1): > 100 µM (inactive) | GI50 (UACC-62): 15.4 µM (inactive) | GI50 (RXF 393): 24 µM (inactive) | GI50 (HT-29): 30.3 µM (inactive) | GI50 (786-0): 42.4 µM (inactive) | GI50 (LXFL 529): 28.4 µM (inactive) | GI50 (M19-MEL): 52.4 µM (inactive) | GI50 (HCC 2998): 27.1 µM (inactive) | GI50 (OVCAR-8): 34.9 µM (inactive) | GI50 (SF-268): 22.1 µM (inactive) | GI50 (UACC-257): 47.8 µM (inactive) | GI50 (OVCAR-3): 39.6 µM (inactive) | GI50 (HCT-116): 28.1 µM (inactive) | GI50 (A498): 26 µM (inactive) | GI50 (DMS-273): 51.6 µM (inactive) | GI50 (IGROV-1): 82.8 µM (inactive) | GI50 (K562): 18.3 µM (inactive) | GI50 (SK-OV-3): > 100 µM (inactive) | GI50 (CCRF-CEM): 20.8 µM (inactive) | GI50 (M14): 30.8 µM (inactive) | GI50 (SN12C): 71.3 µM (inactive) | GI50 (A549): 31 µM (inactive) | GI50 (U-251): 54.6 µM (inactive) | GI50 (KM-20L2): 37.8 µM (inactive) | GI50 (HCT-15): 49.8 µM | GI50 (DMS-114): 18.8 µM (inactive) | GI50 (HOP-92): 35.2 µM (inactive) | GI50 (NCI-H522): 11.4 µM (inactive) | GI50 (SK-MEL-28): 14.8 µM (inactive) | GI50 (SNB-78): > 100 µM (inactive) | GI50 (OVCAR-5): > 100 µM (inactive) | GI50 (SNB-75): 68.5 µM (inactive) | GI50 (OVCAR-4): 39.5 µM (inactive) | GI50 (SW-620): 55.7 µM (inactive) | GI50 (DLD-1): 43.8 µM (inactive) | GI50 (EKVX): 32.9 µM (inactive) | GI50 (SF-295): 43.1 µM (inactive) | GI50 (HOP-62): > 100 µM (inactive)

OC1CC1Sc1ccccc1 (stereo not given)
GI50 (SF-539): 22 µM (inactive) | GI50 (SK-MEL-5): 31.6 µM (inactive) | GI50 (COLO 205): 40.7 µM (inactive) | GI50 (Malme-3M): 95.1 µM (inactive) | GI50 (LOX IMVI): 28 µM (inactive) | GI50 (UO-31): 10.1 µM (inactive) | GI50 (RXF 631): 39.9 µM (inactive) | GI50 (SK-MEL-2): 38.1 µM (inactive) | GI50 (RPMI-8226): 30.5 µM (inactive) | GI50 (NCI-H23): 35.6 µM (inactive) | GI50 (ACHN): 43.5 µM (inactive) | GI50 (MOLT-4): 21.1 µM (inactive) | GI50 (SNB-19): 33.9 µM (inactive) | GI50 (TK-10): 59.7 µM (inactive) | GI50 (CAKI-1): 73.3 µM (inactive) | GI50 (NCI-H460): 65.2 µM (inactive) | GI50 (UACC-62): 33.3 µM (inactive) | GI50 (KM12): 34 µM (inactive) | GI50 (RXF 393): 25.2 µM (inactive) | GI50 (HT-29): 27.2 µM (inactive) | GI50 (786-0): 21 µM (inactive) | GI50 (LXFL 529): 22.8 µM (inactive) | GI50 (M19-MEL): 32.9 µM (inactive) | GI50 (HCC 2998): 35 µM (inactive) | GI50 (OVCAR-8): 28.4 µM (inactive) | GI50 (SF-268): 18.6 µM (inactive) | GI50 (UACC-257): 52.5 µM (inactive) | GI50 (OVCAR-3): 25.4 µM (inactive) | GI50 (HCT-116): 22.5 µM (inactive) | GI50 (A498): 71.8 µM (inactive) | GI50 (DMS-273): 33 µM (inactive) | GI50 (IGROV-1): 23.7 µM (inactive) | GI50 (K562): 33.9 µM (inactive) | GI50 (SK-OV-3): 80.4 µM (inactive) | GI50 (CCRF-CEM): 15.1 µM (inactive) | GI50 (M14): 36.6 µM (inactive) | GI50 (HL-60): 14.2 µM (inactive) | GI50 (SN12C): 24 µM (inactive) | GI50 (A549): 34.6 µM (inactive) | GI50 (U-251): 31.6 µM (inactive) | GI50 (XF498): 79.8 µM (inactive) | GI50 (HCT-15): 36.7 µM | GI50 (DMS-114): 24.7 µM (inactive) | GI50 (HOP-92): 29.6 µM (inactive) | GI50 (NCI-H522): 17.6 µM (inactive) | GI50 (SK-MEL-28): 22.1 µM (inactive) | GI50 (SNB-78): 26.9 µM (inactive) | GI50 (OVCAR-5): 95.3 µM (inactive) | GI50 (SNB-75): 26.7 µM (inactive) | GI50 (OVCAR-4): 30.5 µM (inactive) | GI50 (SW-620): 25.8 µM (inactive) | GI50 (DLD-1): 29.8 µM (inactive) | GI50 (EKVX): 70.1 µM (inactive) | GI50 (SF-295): 24.5 µM (inactive) | GI50 (HOP-62): 43 µM (inactive)

Cn1cc2ccccc2c1-c1nc(N)nc(F)n1
GI50 (SF-539): > 100 µM (inactive) | GI50 (SK-MEL-5): > 100 µM (inactive) | GI50 (COLO 205): > 100 µM (inactive) | GI50 (Malme-3M): 56.1 µM (inactive) | GI50 (LOX IMVI): > 100 µM (inactive) | GI50 (UO-31): 67.9 µM (inactive) | GI50 (RXF 631): > 100 µM (inactive) | GI50 (SK-MEL-2): > 100 µM (inactive) | GI50 (RPMI-8226): > 100 µM (inactive) | GI50 (NCI-H23): > 100 µM (inactive) | GI50 (ACHN): > 100 µM (inactive) | GI50 (MOLT-4): > 100 µM (inactive) | GI50 (SNB-19): > 100 µM (inactive) | GI50 (TK-10): > 100 µM (inactive) | GI50 (CAKI-1): > 100 µM (inactive) | GI50 (NCI-H460): > 100 µM (inactive) | GI50 (KM12): > 100 µM (inactive) | GI50 (RXF 393): 82.8 µM (inactive) | GI50 (HT-29): > 100 µM (inactive) | GI50 (786-0): > 100 µM (inactive) | GI50 (LXFL 529): > 100 µM (inactive) | GI50 (M19-MEL): 54.3 µM (inactive) | GI50 (HCC 2998): > 100 µM (inactive) | GI50 (OVCAR-8): > 100 µM (inactive) | GI50 (SF-268): > 100 µM (inactive) | GI50 (UACC-257): > 100 µM (inactive) | GI50 (OVCAR-3): > 100 µM (inactive) | GI50 (HCT-116): > 100 µM (inactive) | GI50 (A498): 15.6 µM (inactive) | GI50 (DMS-273): > 100 µM (inactive) | GI50 (IGROV-1): > 100 µM (inactive) | GI50 (K562): > 100 µM (inactive) | GI50 (SK-OV-3): > 100 µM (inactive) | GI50 (CCRF-CEM): > 100 µM (inactive) | GI50 (M14): > 100 µM (inactive) | GI50 (HL-60): > 100 µM (inactive) | GI50 (SN12C): > 100 µM (inactive) | GI50 (A549): > 100 µM (inactive) | GI50 (U-251): > 100 µM (inactive) | GI50 (KM-20L2): > 100 µM (inactive) | GI50 (XF498): > 100 µM (inactive) | GI50 (HCT-15): > 100 µM | GI50 (DMS-114): 85.3 µM (inactive) | GI50 (HOP-92): > 100 µM (inactive) | GI50 (NCI-H522): > 100 µM (inactive) | GI50 (SK-MEL-28): > 100 µM (inactive) | GI50 (SNB-78): > 100 µM (inactive) | GI50 (SR): > 100 µM (inactive) | GI50 (OVCAR-5): > 100 µM (inactive) | GI50 (SNB-75): 47.3 µM (inactive) | GI50 (OVCAR-4): > 100 µM (inactive) | GI50 (SW-620): 78.3 µM (inactive) | GI50 (DLD-1): > 100 µM (inactive) | GI50 (EKVX): 64.4 µM (inactive) | GI50 (SF-295): 50.9 µM (inactive) | GI50 (NCI-H226): 29.5 µM (inactive) | GI50 (HOP-62): > 100 µM (inactive)
